The target in experiment [1] is T1, CypA (Homo sapiens, UniProt P62937).
T1 construct: made in house
As to the kind of experiment: SPR binding of Vpr and Vpr peptides to immobilized CypA. As to conditions: for binding to CypA in SPR sensorgrams (in words): peptides 0-8 μM over CM5 chip with 150 RU CypA (Figure 2). On the procedure:
SPR [42-44] measurements were performed at 25°C on a Biacore T100 instrument (Biacore AB, Uppsala, Sweden) equipped with CM5 research-grade sensor chips. CypA was immobilized to 150, 180, 918 and 5003 RU, using standard amine-coupling chemistry. The reference flow cells were treated correspondingly except for CypA immobilization. The synthetic full length Vpr, as well as fragments and mutants thereof, were dissolved at four different concentrations in the running buffer (HBS-EP buffer pH 7.4; 10 mM HEPES, 150 mM NaCl, 3.4 mM EDTA and 0.005% surfacant). The samples were injected over the flow cells at a flow rate of 30 μl/min. Data were collected at 2.5 Hz during 60 s association and 180 s or 240 s dissociation phases, and were automatically corrected for bulk buffer effects and non-specific binding of Vpr peptides to the chip matrix. All SPR data was acquired from two individual series of experiments using four different analyte concentrations with a duplicate injection of one of the individual concentrations.
Affinity, association and dissociation rate constants were obtained from sensorgrams by the Biacore T100 evaluation software version 2.0.1 in accordance with the global curve fit model. Sensorgram data for the four different concentrations were fitted to several binding models including 1:1 (Langmuir) binding model (A+B ↔ AB), two-state reaction (conformational change) model (A+B ↔ AB ↔ AB*), heterogeneous ligand (HL) model (interaction one: A+B1 ↔ AB1; interaction two: A+B2 ↔ AB2) and bivalent analyte (BA) model (A+B ↔ AB; AB+B↔ABB). Kinetic constants were calculated for the best fitted model.

Experiment [2] deals with T1, CypA. As to the kind of experiment: Isothermal titration calorimetry of Vpr^75-90 binding to CypA. The conditions noted are these: ITC; mean ± S.E of two titrations; read-out: Ka (converted). How it is done:
ITC was performed in a VP-ITC titration calorimeter (MicroCal Inc.). […] The mean of the heat from the last 5 injections was subtracted from the raw data to correct for experimental heat dilution. The binding isotherms were fitted to a one site binding model using the Origin v7 software (OriginLab). Chi-square minimization was performed iteratively to obtain the best-fit parameters.

“Also recorded” adds a separate entry of the source. Where a SMILES comes first, the peptide text is derived from it.

The values that follow come from article PMC3269379, “The Host-Pathogen interaction of human cyclophilin A and HIV-1 Vpr requires specific N-terminal and novel C-terminal domains” (BMC Structural Biology, 2011).

T1 sequence (P62937 whole entry): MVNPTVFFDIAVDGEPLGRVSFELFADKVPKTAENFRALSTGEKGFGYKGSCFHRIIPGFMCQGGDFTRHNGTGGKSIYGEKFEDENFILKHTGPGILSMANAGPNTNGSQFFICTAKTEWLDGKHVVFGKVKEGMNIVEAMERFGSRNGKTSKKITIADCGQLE

`CC[C@H](C)[C@H](NC(=O)[C@H](CCCNC(=N)N)NC(=O)[C@H](Cc1ccccc1)NC(=O)[C@H](Cc1c[nH]cn1)NC(=O)[C@@H](NC(=O)[C@@H](N)Cc1ccccc1)[C@@H](C)CC)C(=O)NCC(=O)N[C@@H](CS)C(=O)N[C@@H](CCCNC(=N)N)C(=O)N[C@@H](Cc1c[nH]cn1)C(=O)O` [Vpr^69-78] (H-FIHFRIGCRH-OH; N-terminus and C-terminus assumed): the “binding to CypA in SPR sensorgrams (in words)” value on CypA [1] was “interacted only weakly”.
In the case of `CC[C@H](C)[C@H](NC(=O)[C@H](CCCNC(=N)N)NC(=O)[C@H](CO)NC(=O)[C@H](Cc1c[nH]cn1)NC(=O)[C@H](CCCNC(=N)N)NC(=O)[C@H](CS)NC(=O)CN)C(=O)NCC(=O)N[C@H](C(=O)N[C@H](C(=O)O)[C@@H](C)O)C(C)C` [Vpr^75-84] (H-GCRHSRIGVT-OH; N-terminus and C-terminus assumed), the “binding to CypA in SPR sensorgrams (in words)” value on CypA [1] is given as “interacted only weakly; also recorded: fails to bind”.
At CypA [1], `CC[C@H](C)[C@H](NC(=O)CNC(=O)[C@@H](NC(=O)[C@H](C)NC(=O)[C@H](CO)NC(=O)[C@H](Cc1c[nH]cn1)NC(=O)[C@H](CCC(N)=O)NC(=O)[C@H](CS)NC(=O)CN)[C@@H](C)CC)C(=O)N[C@H](C(=O)N[C@@H](CCCNC(=N)N)C(=O)N[C@@H](CCC(N)=O)C(=O)N[C@@H](CCCNC(=N)N)C(=O)N[C@@H](CCCNC(=N)N)C(=O)N[C@@H](C)C(=O)N[C@@H](CCCNC(=N)N)C(=O)O)[C@@H](C)CC` [Vpr^75-90 (R76Q, V83I, R80A, T84I)] (H-GCQHSAIGIIRQRRAR-OH) displayed a Kd of 2.7 ± 1.9 µM.
On the same count and under the same terms, the value for `CC[C@H](C)[C@H](NC(=O)CNC(=O)[C@@H](NC(=O)[C@H](CCCNC(=N)N)NC(=O)[C@H](CO)NC(=O)[C@H](Cc1c[nH]cn1)NC(=O)[C@H](CCC(N)=O)NC(=O)[C@H](CS)NC(=O)CN)[C@@H](C)CC)C(=O)N[C@H](C(=O)N[C@@H](CCCNC(=N)N)C(=O)N[C@@H](CCC(N)=O)C(=O)N[C@@H](CCCNC(=N)N)C(=O)N[C@@H](CCCNC(=N)N)C(=O)N[C@@H](C)C(=O)N[C@@H](CCCNC(=N)N)C(=O)O)[C@@H](C)CC` [Vpr^75-90 (R76Q, V83I, T84I)] (H-GCQHSRIGIIRQRRAR-OH) was 4.7 ± 2.6 µM.
With `CC[C@H](C)[C@H](NC(=O)[C@H](CCCNC(=N)N)NC(=O)[C@H](CO)NC(=O)[C@H](Cc1c[nH]cn1)NC(=O)[C@H](CCCNC(=N)N)NC(=O)[C@H](CS)NC(=O)CN)C(=O)NCC(=O)N[C@H](C(=O)N[C@H](C(=O)N[C@@H](CCCNC(=N)N)C(=O)N[C@@H](CCC(N)=O)C(=O)N[C@@H](CCCNC(=N)N)C(=O)N[C@@H](CCCNC(=N)N)C(=O)N[C@@H](C)C(=O)N[C@@H](CCCNC(=N)N)C(=O)O)[C@@H](C)O)C(C)C` [Vpr^75-90], on CypA [2], the Kd was 0.0769 µM.
For the compound `CC[C@H](C)[C@H](N)C(=O)NCC(=O)N[C@H](C(=O)N[C@H](C(=O)N[C@@H](CCCNC(=N)N)C(=O)N[C@@H](CCC(N)=O)C(=O)N[C@@H](CCCNC(=N)N)C(=O)N[C@@H](CCCNC(=N)N)C(=O)N[C@@H](C)C(=O)N[C@@H](CCCNC(=N)N)C(=O)O)[C@@H](C)O)C(C)C` [Vpr^81-90] (H-IGVTRQRRAR-OH; N-terminus and C-terminus assumed), the “binding to CypA in SPR sensorgrams (in words)” value at CypA [1] is “interacted only weakly”.
For `C[C@H](NC(=O)CNC(=O)[C@H](CC(N)=O)NC(=O)[C@H](CCCNC(=N)N)NC(=O)[C@H](C)NC(=O)[C@H](CCCNC(=N)N)NC(=O)[C@@H](N)CCCNC(=N)N)C(=O)N[C@@H](CO)C(=O)N[C@@H](CCCNC(=N)N)C(=O)N[C@@H](CO)C(=O)O` [Vpr^87-96] (H-RRARNGASRS-OH; N-terminus and C-terminus assumed), the “binding to CypA in SPR sensorgrams (in words)” value at CypA [1] is on record as “interacted only weakly”.
In the case of “Vpr^30-40: N-terminal peptide containing the N-terminal binding region of Vpr to CypA (AVRHFPRIWLH)”, the “binding to CypA in SPR sensorgrams, comparison (in words)” value with CypA [1] (analyte 1-8 μM, chip with 180 RU CypA (Figure 1B, C)) is listed as “lower affinity”.
